Measurements from PMC9697446 (International Journal of Molecular Sciences, 2022).

Key:
[1] = Oxygen radical absorbance capacity assay (ORAC-FL); details: Trolox equivalent, Trolox = 1; means ± SEM (n = 3)
Excerpt: The method is based on the measurement of the fluorescence intensity characterizing the degree of destruction of the fluorescence probe under the action of peroxyl radicals.
The peroxyl radical scavenging capacity of the test compounds was characterized in terms of the Trolox equivalent (TE), which is equal to the ratio of the Trolox concentration to the concentration of a test compound when they show equal fluorescence intensities in the assay. The peroxyl radical scavenging capacity of Trolox was set as 1 [67, 68].
2,2´-Azobis(amidinopropane) dihydrochloride (AAPH), (±)-6-hydroxy-2,5,7,8-tetramethylchroman-2-carboxylic acid (Trolox), and fluorescein (FL) were purchased from Sigma-Aldrich. The reaction was carried out at 37 °C in 75 mM K,Na phosphate buffer (pH 7.4), and the final reaction mixture was 200 µL. The test compounds and the Trolox standard were dissolved in DMSO to 10 mM and further diluted in a 75 mM K,Na phosphate buffer (pH 7.4). The final concentrations were 0.1–1 µM for the test compounds and 1–6 µM for the Trolox. The blank was composed of 20 µL of a 75 mM K,Na phosphate buffer (pH 7.4) containing 20% (v/v) DMSO, 120 µL of FL and 60 µL of AAPH, and it was added in each assay. The antioxidant (20 µL) and FL (120 µL, final concentration: 70 nM) solutions were placed in a black 96-well microplate and were preincubated for 15 min at 37 °C. A solution of AAPH (60 µL, final concentration: 12 mM) was then added rapidly using a multichannel pipette. The microplate was immediately placed in the reader, and the fluorescence was recorded every minute for 100 min. The microplate was automatically shaken prior to each reading. The Trolox standard curve was also obtained in each assay. All reactions were carried out in triplicate, and at least three different assays were performed for each sample.
The antioxidant curves (fluorescence vs. time) were first normalized to the curve of the blank (without the antioxidant) corresponding to the same assay, and the area under the fluorescence decay curve (AUC) was calculated. The net AUC corresponding to a sample was calculated by subtracting the AUC corresponding to the blank. Regression equations were calculated by plotting the net AUC against the antioxidant concentration. The ORAC Tolox equivalent value (TE) was obtained by dividing the slope of the latter curve by the slope of the Trolox curve obtained in the same assay. The ability of Trolox to scavenge the peroxyl radical was equal to 1 [64, 65]. […] The data are expressed as means ± SEM.

[2] = ABTS radical cation scavenging assay; details: 1 h incubation, means ± SEM (n = 3); for IC50: 50% reduction of ABTS radical; for ABTS Scavenging Activity, TEAC Value: Trolox equivalent antioxidant capacity
Method: The ABTS assay is based on the direct binding of a model ABTS radical cation (2,2′-azino-bis-(3-ethylbenzothiazoline-6-sulfonate), ABTS^•+) by antioxidants. The measurements were performed as previously described in detail.
The radical scavenging activity was expressed as TEAC values (Trolox equivalent antioxidant capacity) and determined as the ratio between the slopes obtained from the linear correlation of the ABTS radical absorbance with the concentrations of the test compounds and Trolox.
The radical scavenging activity of the compounds was assessed using an ABTS radical decolorization assay. The procedure followed the reported protocol with minor modifications. ABTS (2,2ʹ-azino-bis-(3-ethylbenzothiazoline-6-sulfonic acid) diammonium salt) was purchased from TCI (Tokyo, Japan), while potassium persulfate (di-potassium peroxodisulfate), Trolox (6-hydroxy-2,5,7,8-tetramethylchroman-2-carboxylic acid), catechol, and DMSO were received from Sigma-Aldrich Chemical Co. (St. Louis, MO, USA). The ethanol was HPLC grade. Aqueous solutions were prepared using deionized water.
Trolox was used as the standard reference compound. Catechol was used as the positive control. All test and reference compounds were dissolved in DMSO. The final concentration of DMSO in the reaction mixture was 4% (v/v).
The solution of ABTS radical cation (ABTS^•+) was produced by mixing a 7 mM ABTS stock solution with a 2.45 mM aqueous solution of potassium persulfate in equal quantities and allowing them to react for 12–16 h at room temperature in the dark. At the time of activity determination, the ABTS^•+ solution was diluted with ethanol to adjust it to an absorbance value of about 0.80 ± 0.05 at 734 nm. A fresh working solution of ABTS^•+ was prepared for each assay.
The radical scavenging capacity of the compounds was analyzed by mixing 10 μL of test compound with 240 μL of ABTS^•+ working solution. The reduction in absorbance was measured spectrophotometrically at 734 nm using an xMark microplate UV/VIS spectrophotometer (Bio-Rad, Hercules, CA, USA). The reaction was monitored for an hour at 10 min intervals. Data were given for 1 h of incubation of compounds with ABTS^•+. EtOH blanks were run in each assay. The results were obtained from three replicates of each sample and three independent experiments.
The antioxidant capacity as a Trolox equivalent (TEAC values) was determined as the ratio between the slopes obtained from the linear correlation of concentrations of test compounds and Trolox with absorbance of ABTS radical.

EeAChE = target: T1, EeAChE (Electrophorus electricus, UniProt O42275); assay: biochemical; details: means ± SEM (n = 3); read-out: EeAChE Inhibition, IC50
T1 construct: purchased Sigma-Aldrich type VI-S
T1 sequence (O42275 24-633): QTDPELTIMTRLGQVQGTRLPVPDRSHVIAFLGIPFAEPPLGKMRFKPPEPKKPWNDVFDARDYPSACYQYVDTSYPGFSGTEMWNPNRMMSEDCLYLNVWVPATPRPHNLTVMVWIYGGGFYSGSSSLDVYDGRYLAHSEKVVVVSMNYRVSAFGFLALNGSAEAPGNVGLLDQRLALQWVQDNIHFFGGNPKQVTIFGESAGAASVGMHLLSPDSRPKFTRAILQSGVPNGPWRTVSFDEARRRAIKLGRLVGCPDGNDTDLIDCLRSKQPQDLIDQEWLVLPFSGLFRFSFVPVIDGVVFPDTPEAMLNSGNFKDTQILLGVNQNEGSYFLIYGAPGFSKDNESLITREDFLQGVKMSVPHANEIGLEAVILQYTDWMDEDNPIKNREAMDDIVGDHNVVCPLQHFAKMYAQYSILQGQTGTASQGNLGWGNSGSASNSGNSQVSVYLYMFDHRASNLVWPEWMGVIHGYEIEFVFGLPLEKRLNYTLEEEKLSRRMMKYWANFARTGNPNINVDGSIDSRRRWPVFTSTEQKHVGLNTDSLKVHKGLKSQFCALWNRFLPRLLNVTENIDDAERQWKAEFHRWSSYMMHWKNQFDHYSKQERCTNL
Method: We selected AChE from electric eels (Electrophorus electricus) for consistency with our other reports and because of its purity, specific activity, and lower cost compared to human AChE [64].
(§1) AChE and BChE activities were measured via the Ellman method. The assay solution consisted of 0.1 M K/Na phosphate buffer pH 7.5, 25 °C with the addition of 0.33 mM DTNB, 0.02 unit/mL of AChE or BChE and 1 mM of substrate (ATCh or BTCh, respectively). The assays were carried out with a reagent blank containing all components (except AChE orBChE) in order to account for the non-enzymatic hydrolysis of the substrate. In addition, an enzyme blank was included that contained all components except substrate to account for non-substrate sulfhydryl groups.
(§2) The test compounds were dissolved in DMSO, and the incubation mixture contained 2% (v/v) of the solvent. Enzyme inhibition was first assessed at a single concentration of 20 µM for each compound after a 5 min incubation at 25 °C in three separate experiments. […] The test compounds were added to the assay solution and preincubated at 25 °C with the enzymes for 5 min, followed by the addition of substrate. A parallel control was made for the assay solution with no inhibitor. Measurements were performed with a FLUOStar Optima microplate reader (BMG Labtech, Ortenberg, Germany). Each experiment was performed in triplicate. The results were expressed as the mean ± SEM. The reaction rates in the presence and absence of the inhibitor were compared, and the percent of residual enzyme activity due to the presence of test compounds was calculated.
(§3) PIand donepezil were purchased from Sigma-Aldrich. […] As the source of the enzyme, electric eel (Elecrophorus electricus) AChE (EeAChE, type VI-S, lyophilized powder, Sigma-Aldrich, Saint Louis, MO, USA) was used. The applicability of this enzyme was shown earlier

EeAChE PAS = target: T2, EeAChE PAS (Electrophorus electricus, UniProt O42275); assay: biochemical; assay type: binding; details: EeAChE 7 µM, PI 8 µM, means ± SEM (n = 3); for inhibition at 3 µM: compound 3 µM, read-out: PI Displacement, 3 µM; for inhibition at 20 µM: compound 20 µM, read-out: PI Displacement, 20 µM
T2 construct: purchased Sigma-Aldrich type VI-S
T2 sequence (O42275 24-633): as above
Method: as §3
To determine the percentage of displacement of PI from the EeAChE PAS, EeAChE (with a final concentration of 7 μM) was incubated with the test compound at a concentration of 3 and 20 μM in 1 mM Tris-HCl buffer pH 8.0, 25 °C for 15 min. Next, PIsolution (with a final concentration of 8 μM) was added, the samples were incubated for 15 min, and the fluorescence spectrum (530 nm (exc.) and 600 nm (emiss.)) was taken. Donepezil and decamethonium were used as reference compounds. The blank contained PI of the same concentration in 1 mM Tris-HCl buffer pH 8.0. The measurements were carried out in triplicate on a FLUOStar Optima microplate reader).
The percentage of displacement of PIfrom the peripheral anionic site of AChE was calculated using the following formula:% Displacement = 100 − (IFAChE+Propidium+inhibitor/IFAChE+Propidium) × 100,(1) where IFAChE+Propidium is the fluorescence intensity of the propidium associated with AChE in the absence of the test compound (taken as 100%) and IFAChE+Propidium+inhibitor is the fluorescence intensity of the propidium associated with AChE in the presence of the test compound.

equine serum BChE = target: T3, equine serum BChE (Equus caballus, UniProt P81908); assay: biochemical; details: IC50 ± SEM, n = 3
T3 construct: the equine serum BChE, and the porcine liver CES; purchased Sigma-Aldrich; host or cells: equine serum
T3 sequence (P81908 whole entry): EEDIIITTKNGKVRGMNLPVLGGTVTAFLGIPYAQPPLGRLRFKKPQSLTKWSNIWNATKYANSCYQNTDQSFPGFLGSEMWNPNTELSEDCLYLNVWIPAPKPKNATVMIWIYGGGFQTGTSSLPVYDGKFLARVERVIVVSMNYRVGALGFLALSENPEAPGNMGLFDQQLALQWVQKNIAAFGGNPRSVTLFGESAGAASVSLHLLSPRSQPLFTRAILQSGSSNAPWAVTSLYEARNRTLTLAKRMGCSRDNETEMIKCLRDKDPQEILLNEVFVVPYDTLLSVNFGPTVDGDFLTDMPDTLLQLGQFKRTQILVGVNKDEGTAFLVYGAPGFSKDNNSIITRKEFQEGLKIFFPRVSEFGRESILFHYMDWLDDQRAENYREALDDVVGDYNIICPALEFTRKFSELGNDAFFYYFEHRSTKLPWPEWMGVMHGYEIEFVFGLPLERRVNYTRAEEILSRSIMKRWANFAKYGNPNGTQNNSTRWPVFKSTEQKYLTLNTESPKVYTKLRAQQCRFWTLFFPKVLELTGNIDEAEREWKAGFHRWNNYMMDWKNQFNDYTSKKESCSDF
Method: (§4) The esterase profile was estimated using the human erythrocyteAChE, the equine serum BChE, and the porcine liver CES.
(§5) Human erythrocyte AChE, equine serum BChE, porcine liver CES, acetylthiocholine iodide (ATCh), butyrylthiocholine iodide (BTCh), 5,5′-dithio-bis-(2-nitrobenzoic acid) (DTNB), 4-nitrophenol acetate (4-NPA), and BNPP were purchased from Sigma-Aldrich (St. Louis, MO, USA).
as §1, §2

human erythrocyte AChE = target: T4, human erythrocyte AChE (Homo sapiens, UniProt P22303); assay: biochemical; details: IC50 ± SEM, n = 3
T4 construct: The esterase profile was estimated using the human erythrocyteAChE; purchased Sigma-Aldrich; host or cells: human erythrocytes
T4 sequence (P22303 32-617 isoform P22303-2 limits assumed): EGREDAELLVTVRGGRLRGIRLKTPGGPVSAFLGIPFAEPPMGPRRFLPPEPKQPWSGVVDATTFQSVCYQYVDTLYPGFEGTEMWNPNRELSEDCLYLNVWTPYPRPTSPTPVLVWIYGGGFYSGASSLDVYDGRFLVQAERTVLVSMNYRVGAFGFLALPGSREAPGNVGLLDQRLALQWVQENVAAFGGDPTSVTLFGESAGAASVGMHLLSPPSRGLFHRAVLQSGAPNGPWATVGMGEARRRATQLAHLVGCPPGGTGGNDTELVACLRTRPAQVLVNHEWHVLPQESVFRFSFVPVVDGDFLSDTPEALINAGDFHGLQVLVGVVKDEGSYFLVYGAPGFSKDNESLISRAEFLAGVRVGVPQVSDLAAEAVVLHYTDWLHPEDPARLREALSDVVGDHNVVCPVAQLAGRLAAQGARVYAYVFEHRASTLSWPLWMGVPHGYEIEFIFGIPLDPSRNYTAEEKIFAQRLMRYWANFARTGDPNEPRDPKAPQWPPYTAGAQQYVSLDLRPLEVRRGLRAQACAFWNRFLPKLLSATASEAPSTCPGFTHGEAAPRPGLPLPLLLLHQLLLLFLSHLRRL
Method: as §4, §5, §1, §2

porcine liver CES = assay: CES inhibition (4-nitrophenyl acetate hydrolysis); assay type: biochemical; details: ± SEM, n = 3;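 also: values are percent inhibition of CES activity not residual activity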
Method: as §4, §5
The assay solution consisted of 0.1 M K/Na phosphate buffer pH 8.0, 25 °C, with the addition of 1 mM 4-nitrophenyl acetate and 0.02 unit/mL of CES. The assays were carried out with a blank containing all components, except CES.
as §2

Structure (SMILES)	ORAC, TE Value [1]	IC50 [2] [µM]	ABTS Scavenging Activity, TEAC Value [2]	IC50 (EeAChE) [µM]	inhibition at 3 µM (EeAChE PAS) [%]	inhibition at 20 µM (EeAChE PAS) [%]	IC50 (equine serum BChE) [µM]	IC50 (human erythrocyte AChE) [µM]	CES inhibition at 20 µM (porcine liver CES) [%]
Oc1ccccc1O [Catechol, catechol, reference compound]	6.6 ± 0.2	16.7 ± 1.2	1.20 ± 0.11	–	–	–	–	–	–
CC1CCc2c(c3cc(C(F)(F)F)ccc3n2CCC(=O)N2c3ccc(N(C)C)cc3Sc3cc(N(C)C)ccc32)C1 (stereo not shown) [Compound 4g]	6.5 ± 0.1	30.8 ± 2.9	0.70 ± 0.04	0.8 ± 0.05	20.9 ± 1.3	32.8 ± 0.7	20.3 ± 0.21	3.56 ± 0.09	1.4 ± 0.2
CN(C)c1ccc2c(c1)Sc1cc(N(C)C)ccc1N2C(=O)CCn1c2c(c3cc(OC(F)(F)F)ccc31)CCCCC2 [Compound 4l]	8.4 ± 0.8	20.7 ± 1.7	0.98 ± 0.09	3.4 ± 0.21	14.9 ± 0.1	17 ± 1.2	42.2 ± 2.93	15 ± 1.12	7.6 ± 0.8
Cc1c(C)c2c(c(C)c1O)CCC(C)(C(=O)O)O2 (stereo not shown) [Trolox, 6-hydroxy-2,5,7,8-tetramethylchroman-2-carboxylic acid, reference compound]	1.00	20.4 ± 1.7	1.00	–	–	–	–	–	–
c1ccc2c(c1)[nH]c1ccccc12 [carbazole, reference compound]	–	–	–	–	–	–	–	–	9.4 ± 1.0
